Earlier results as cited in EP2266541A1, “Solid pharmaceutical composition comprising rivaroxaban” (Krka Tovarna Zdravil, D.D., Novo Mesto, priority 2009, dated 2010).

Details: stated in the background section, no method given

solubility in water: about 7 mg/L
SMILES: O=C(NC[C@H]1CN(c2ccc(N3CCOCC3=O)cc2)C(=O)O1)c1ccc(Cl)s1 [Rivaroxaban, 5-chloro-N-{[(5S)-2-oxo-3-[4-(3-oxomorpholin-4-yl)phenyl]oxazolidin-5-yl]methyl}thiophene-2-carboxamide]
